± gives the standard deviation of the averaged measurements.
How the values were obtained:
Assay in all cases: normalised growth rate inhibition (GR value) relative to DMSO control (GR (1 = untreated growth, 0 = cytostasis, <0 = cytotoxic)); higher = less growth inhibition
Settings in all cases: 72 h
SKBR3 = tested on: SKBR3
Experimental: (§1)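 Breast cancer cell lines (BT-20, Hs 578T, MCF 10A, MCF7, MDA-MB-231, SK-BR-3) were plated in 384-well plates and treated 24 h later with drugs at six concentrations (0.04-10 µM). Viable cells were counted by Hoechst/dead-cell-stain imaging at 0 and 72 h. Counts were normalised to DMSO controls on the same plate to give the relative cell count and the growth-rate inhibition (GR) value; technical plate triplicates were averaged for each biological replicate.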

BT20 = tested on: BT20
Experimental: as §1

MDAMB231 = tested on: MDAMB231
Experimental: as §1

MCF7 = tested on: MCF7
Experimental: as §1

MCF10A = tested on: MCF10A
Experimental: as §1

HS578T = tested on: HS578T
Experimental: as §1

| Compound | normalised growth rate inhibition (SKBR3; 0.04 µM) | normalised growth rate inhibition (SKBR3; 0.12 µM) | normalised growth rate inhibition (SKBR3; 0.37 µM) | normalised growth rate inhibition (SKBR3; 1.11 µM) | normalised growth rate inhibition (SKBR3; 3.33 µM) | normalised growth rate inhibition (SKBR3; 10 µM) | normalised growth rate inhibition (BT20; 0.04 µM) | normalised growth rate inhibition (BT20; 0.12 µM) | normalised growth rate inhibition (BT20; 0.37 µM) | normalised growth rate inhibition (BT20; 1.11 µM) | normalised growth rate inhibition (BT20; 3.33 µM) | normalised growth rate inhibition (BT20; 10 µM) | normalised growth rate inhibition (MDAMB231; 0.04 µM) | normalised growth rate inhibition (MDAMB231; 0.12 µM) | normalised growth rate inhibition (MDAMB231; 0.37 µM) | normalised growth rate inhibition (MDAMB231; 1.11 µM) | normalised growth rate inhibition (MDAMB231; 3.33 µM) | normalised growth rate inhibition (MDAMB231; 10 µM) | normalised growth rate inhibition (MCF7; 0.04 µM) | normalised growth rate inhibition (MCF7; 0.12 µM) | normalised growth rate inhibition (MCF7; 0.37 µM) | normalised growth rate inhibition (MCF7; 1.11 µM) | normalised growth rate inhibition (MCF7; 3.33 µM) | normalised growth rate inhibition (MCF7; 10 µM) | normalised growth rate inhibition (MCF10A; 0.04 µM) | normalised growth rate inhibition (MCF10A; 0.12 µM) | normalised growth rate inhibition (MCF10A; 0.37 µM) | normalised growth rate inhibition (MCF10A; 1.11 µM) | normalised growth rate inhibition (MCF10A; 3.33 µM) | normalised growth rate inhibition (MCF10A; 10 µM) | normalised growth rate inhibition (HS578T; 0.04 µM) | normalised growth rate inhibition (HS578T; 0.12 µM) | normalised growth rate inhibition (HS578T; 0.37 µM) | normalised growth rate inhibition (HS578T; 1.11 µM) | normalised growth rate inhibition (HS578T; 3.33 µM) | normalised growth rate inhibition (HS578T; 10 µM) |
| --- | --- | --- | --- | --- | --- | --- | --- | --- | --- | --- | --- | --- | --- | --- | --- | --- | --- | --- | --- | --- | --- | --- | --- | --- | --- | --- | --- | --- | --- | --- | --- | --- | --- | --- | --- | --- |
| COc1ccc(-c2ccc3c(N4CCOC[C@@H]4C)nc(N4CCOC[C@@H]4C)nc3n2)cc1CO [AZD-8055] | -0.0402 ± 0.13 | -0.0898 ± 0.17 | -0.0997 ± 0.15 | -0.12 ± 0.1 | -0.137 ± 0.12 | -0.363 ± 0.15 | 0.3 ± 0.14 | 0.179 ± 0.12 | 0.0816 ± 0.063 | 0.0556 ± 0.071 | -0.00646 ± 0.086 | -0.306 ± 0.36 | 0.484 ± 0.046 | 0.317 ± 0.048 | 0.245 ± 0.0043 | 0.224 ± 0.015 | 0.146 ± 0.099 | -0.0657 ± 0.25 | 0.0296 ± 0.035 | -0.00352 ± 0.044 | -0.0152 ± 0.064 | -0.00932 ± 0.072 | -0.0344 ± 0.067 | -0.216 ± 0.23 | 0.494 ± 0.1 | 0.296 ± 0.088 | 0.205 ± 0.048 | 0.175 ± 0.027 | 0.146 ± 0.012 | -0.102 ± 0.39 | 0.255 ± 0.041 | 0.187 ± 0.031 | 0.176 ± 0.022 | 0.16 ± 0.023 | 0.111 ± 0.073 | -0.22 ± 0.29 |
| O=c1[nH]c2ccccc2n1C1CCN(Cc2ccc(-c3[nH]c4cc5ncnc5cc4nc3-c3ccccc3)cc2)CC1 [AKT-inhibitor-1-2] | 0.675 ± 0.14 | 0.759 ± 0.051 | 0.766 ± 0.021 | 0.587 ± 0.091 | 0.599 ± 0.027 | 0.299 ± 0.043 | 0.831 ± 0.027 | 0.851 ± 0.026 | 0.921 ± 0.023 | 0.849 ± 0.015 | 0.872 ± 0.026 | 0.291 ± 0.052 | 0.874 ± 0.091 | 0.889 ± 0.086 | 0.918 ± 0.046 | 0.835 ± 0.083 | 0.888 ± 0.023 | 0.56 ± 0.11 | 0.749 ± 0.023 | 0.741 ± 0.034 | 0.701 ± 0.1 | 0.471 ± 0.066 | 0.436 ± 0.11 | -0.0151 ± 0.17 | 0.994 ± 0.01 | 0.979 ± 0.01 | 0.9721 ± 0.0092 | 0.922 ± 0.048 | 0.945 ± 0.047 | 0.605 ± 0.15 | 0.9753 ± 0.0043 | 0.9556 ± 0.0094 | 0.933 ± 0.0086 | 0.857 ± 0.029 | 0.875 ± 0.024 | 0.388 ± 0.099 |
| CC(C)(C)c1cnc(CSc2cnc(NC(=O)C3CCNCC3)s2)o1 | 0.464 ± 0.18 | -0.223 ± 0.15 | -0.312 ± 0.17 | -0.332 ± 0.17 | -0.343 ± 0.21 | -0.367 ± 0.21 | 0.885 ± 0.061 | 0.134 ± 0.27 | -0.239 ± 0.067 | -0.323 ± 0.17 | -0.33 ± 0.19 | -0.299 ± 0.2 | 0.314 ± 0.11 | -0.201 ± 0.17 | -0.24 ± 0.17 | -0.23 ± 0.15 | -0.203 ± 0.18 | -0.201 ± 0.14 | -0.0791 ± 0.16 | -0.295 ± 0.04 | -0.329 ± 0.061 | -0.326 ± 0.058 | -0.34 ± 0.063 | -0.354 ± 0.083 | 0.921 ± 0.093 | 0.0575 ± 0.011 | -0.186 ± 0.2 | -0.256 ± 0.23 | -0.261 ± 0.23 | -0.254 ± 0.19 | 0.786 ± 0.044 | -0.123 ± 0.12 | -0.146 ± 0.094 | -0.155 ± 0.12 | -0.137 ± 0.095 | -0.148 ± 0.11 |
| COc1cc2ncn(-c3cc(OCc4ccccc4C(F)(F)F)c(C(N)=O)s3)c2cc1OC | 0.847 ± 0.018 | 0.463 ± 0.19 | -0.0831 ± 0.12 | -0.157 ± 0.18 | -0.213 ± 0.17 | 0.0233 ± 0.42 | 0.853 ± 0.061 | 0.614 ± 0.18 | 0.331 ± 0.27 | -0.00404 ± 0.12 | -0.126 ± 0.06 | -0.0325 ± 0.31 | 0.892 ± 0.064 | 0.736 ± 0.11 | 0.404 ± 0.12 | 0.0556 ± 0.12 | -0.0347 ± 0.12 | 0.0238 ± 0.14 | 0.68 ± 0.15 | 0.279 ± 0.18 | 0.14 ± 0.023 | 0.072 ± 0.019 | 0.0415 ± 0.007 | 0.167 ± 0.099 | 0.96 ± 0.027 | 0.817 ± 0.083 | 0.412 ± 0.13 | 0.0464 ± 0.034 | -0.0733 ± 0.13 | -0.101 ± 0.17 | 0.959 ± 0.075 | 0.603 ± 0.19 | 0.0393 ± 0.039 | -0.137 ± 0.087 | -0.145 ± 0.12 | 0.00336 ± 0.2 |
| C[C@@H](N)c1ccc(C(=O)Nc2ccnc3[nH]ccc23)cc1 | 0.839 ± 0.19 | 0.836 ± 0.19 | 0.782 ± 0.14 | 0.667 ± 0.18 | 0.522 ± 0.18 | -0.122 ± 0.18 | 0.994 ± 0.068 | 1.01 ± 0.098 | 0.962 ± 0.084 | 0.895 ± 0.073 | 0.802 ± 0.09 | 0.296 ± 0.17 | 0.873 ± 0.12 | 0.849 ± 0.1 | 0.777 ± 0.11 | 0.703 ± 0.086 | 0.586 ± 0.062 | -0.303 ± 0.14 | 1.06 ± 0.049 | 1.04 ± 0.043 | 1 ± 0.039 | 0.905 ± 0.11 | 0.63 ± 0.19 | -0.243 ± 0.13 | 0.9685 ± 0.0076 | 0.877 ± 0.069 | 0.888 ± 0.038 | 0.864 ± 0.047 | 0.805 ± 0.089 | 0.336 ± 0.18 | 0.884 ± 0.015 | 0.821 ± 0.059 | 0.802 ± 0.03 | 0.757 ± 0.041 | 0.626 ± 0.054 | 0.0283 ± 0.12 |
| C=CC(=O)Nc1cccc(Nc2nc(NC3CCC(N(C)C)CC3)nc3c2ncn3C(C)C)c1 (configuration not stated) [WZ-3105] | -0.298 ± 0.15 | -0.287 ± 0.18 | -0.269 ± 0.18 | -0.273 ± 0.18 | -0.266 ± 0.15 | -0.227 ± 0.19 | 0.223 ± 0.13 | 0.0547 ± 0.14 | -0.0538 ± 0.17 | -0.207 ± 0.19 | -0.253 ± 0.18 | -0.328 ± 0.19 | -0.23 ± 0.13 | -0.232 ± 0.15 | -0.235 ± 0.16 | -0.237 ± 0.16 | -0.232 ± 0.12 | -0.132 ± 0.12 | -0.317 ± 0.065 | -0.303 ± 0.097 | -0.28 ± 0.11 | -0.254 ± 0.091 | -0.27 ± 0.062 | -0.296 ± 0.05 | 0.523 ± 0.12 | 0.188 ± 0.13 | -0.101 ± 0.14 | -0.224 ± 0.24 | -0.245 ± 0.25 | -0.269 ± 0.24 | -0.121 ± 0.089 | -0.138 ± 0.075 | -0.127 ± 0.097 | -0.135 ± 0.11 | -0.147 ± 0.1 | -0.143 ± 0.14 |
| Nc1cccc(-c2cc3c(Oc4cccc(O)c4)ncnc3[nH]2)c1 [TWS-119] | 1.09 ± 0.077 | 0.989 ± 0.074 | 1.06 ± 0.044 | 1.02 ± 0.043 | 0.48 ± 0.095 | -0.212 ± 0.26 | 1.02 ± 0.034 | 0.994 ± 0.056 | 0.971 ± 0.055 | 0.885 ± 0.11 | 0.696 ± 0.096 | 0.0129 ± 0.081 | 0.975 ± 0.056 | 0.961 ± 0.07 | 0.929 ± 0.084 | 0.785 ± 0.056 | 0.619 ± 0.021 | 0.0363 ± 0.044 | 1.06 ± 0.061 | 0.984 ± 0.053 | 0.991 ± 0.071 | 0.963 ± 0.079 | 0.616 ± 0.079 | -0.165 ± 0.1 | 1.02 ± 0.013 | 1.01 ± 0.011 | 1.02 ± 0.0082 | 1.02 ± 0.024 | 0.912 ± 0.11 | 0.0326 ± 0.084 | 1.02 ± 0.014 | 0.9855 ± 0.0042 | 0.978 ± 0.011 | 0.8808 ± 0.0081 | 0.707 ± 0.057 | -0.081 ± 0.15 |

— the supplement of paper PMC5662764
